{
  "source": "patent US20250213533A1",
  "about": "(GH RESEARCH IRELAND LIMITED, priority 2022, published 2025)",
  "key": {"[1]": {"assay": "Pharmacokinetics of 5-MeO-DMT and bufotenine after inhalation of 5-MeO-DMT in subjects", "assay_type": "in vivo, human"}, "[2]": {"tested_on": "Escherichia coli (WP2 uvrA pKM101)", "assay": "Bacterial mutation test, tryptophan-requiring strain", "assay_type": "cell-based", "conditions": "up to 5000 μg/plate, absence and presence of rat liver S-9", "experimental": "(§1) These conditions included treatments at concentrations up to 5000 μg/plate (the maximum recommended concentration according to current regulatory guidelines), in the absence and in the presence of a rat liver metabolic activation system (S-9)."}, "5-HT2A receptors": {"target": "T1, 5-HT2A receptors (Homo sapiens, UniProt P28223)", "T1 construct": "5-HT1A and 5-HT2A receptors in post-mortem human brain tissue from the hippocampus and frontal cortex, respectively; tissue Edinburgh Sudden Death Brain Bank; host or cells: post-mortem human frontal cortex membranes", "T1 sequence (P28223 whole entry)": "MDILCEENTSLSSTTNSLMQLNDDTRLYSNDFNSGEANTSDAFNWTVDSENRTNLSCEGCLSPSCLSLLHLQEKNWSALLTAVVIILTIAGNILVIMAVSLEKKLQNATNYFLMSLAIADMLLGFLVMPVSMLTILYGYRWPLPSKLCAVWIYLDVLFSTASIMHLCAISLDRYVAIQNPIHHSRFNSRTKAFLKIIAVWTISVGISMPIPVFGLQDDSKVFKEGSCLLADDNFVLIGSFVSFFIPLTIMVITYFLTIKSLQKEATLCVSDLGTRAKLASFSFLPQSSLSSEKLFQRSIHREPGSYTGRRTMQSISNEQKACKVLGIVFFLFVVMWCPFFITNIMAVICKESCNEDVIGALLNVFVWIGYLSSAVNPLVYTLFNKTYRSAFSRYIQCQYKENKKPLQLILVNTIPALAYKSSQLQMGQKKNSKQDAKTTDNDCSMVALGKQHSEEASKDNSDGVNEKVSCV", "assay": "Radioligand binding ([3H]MDL-100,907) to 5-HT2A receptors in post-mortem human frontal cortex membranes"}, "[3]": {"tested_on": "Salmonella typhimurium (TA98, TA100, TA1535 and TA1537)", "assay": "Bacterial mutation test, histidine-requiring strains", "assay_type": "cell-based", "conditions": "up to 5000 μg/plate, absence and presence of rat liver S-9", "experimental": "as §1"}},
  "data": [
    {"smiles": "COc1ccc2[nH]cc(CCN(C)C)c2c1", "note": "[5-MeO-DMT]", "values": [
      {"measurement": "detectability in plasma", "setting": "[1]; 3 hours after inhalation, 6, 12, 18 mg", "result": "no longer detectable"},
      {"measurement": "absorption and distribution", "setting": "[1]; inhaled", "result": "rapid absorption and distribution"},
      {"measurement": "pharmacokinetic measurements with uptitration dosing schemes compared with single doses", "setting": "[1]; uptitration, inhaled", "result": "Substantially similar results"},
      {"measurement": "induction of mutation", "setting": "[2]", "result": "did not induce mutation"},
      {"measurement": "affinity for 5-HT2A receptors (in words)", "setting": "5-HT2A receptors", "result": "comparatively weak affinity"},
      {"measurement": "induction of mutation", "setting": "[3]", "result": "did not induce mutation"}
    ]}
  ]
}
